According to patent publication US8940727B2, “Benzazepine compound” (Otsuka Pharmaceutical Co., Ltd., priority 2009, dated 2015):

Test: Metabolic stability assay in human liver microsomes
Format: in vitro ADME
Details: for microsomal CLint at 1 μM: human liver microsomes 0.2 mg/mL, test compound 1 μM, NADPH/NADH, n = 4, read-out: hepatic intrinsic clearance (Clint)
Description: The following reaction system was prepared with reference to the method disclosed by Obach, and that disclosed by Jones et al. (References 1 and 2), and the metabolic stability thereof was evaluated. Note that the human liver microsomes used were purchased from BD Gentest. The test compound was dissolved in DMSO to have a concentration of 10 mM and diluted with acetonitrile in such a manner that its concentration became 100 μM.
A reaction system without a coenzyme was preincubated at 37° C. for 5 minutes, and a coenzyme was then added to start the reaction. After the addition of the coenzyme, the incubation was performed at selected time intervals, i.e., 0, 5, 10, 20, 30 and 60 minutes to extract a portion of the reaction mixture. The extracted reaction mixture was added to an acetonitrile solution containing an internal standard substance and the reaction was then terminated.
After the reaction was terminated, the resulting mixture was centrifuged, the supernatant was poured into a liquid chromatograph tandem mass spectrometer (LC-MS/MS) to determine the level of unchanged substance remaining in the reaction system. Ionization was performed by electro-spray ionization (ESI) in a positive ion detection mode. Here, selected reaction monitoring (MRM) using preset precursor ions and product ions was employed.
The remaining ratio of the test compound was calculated by the following equation. Remaining ratio=(peak area of the test compound at the reaction time of t minutes/peak area of the internal standard substance)÷(peak area of the test compound at the reaction time of 0 minutes/peak area of the internal standard substance)
A nonlinear least-squares analysis was performed in terms of the remaining ratio and incubation time to obtain the elimination rate constant (0.693/t1/2), and, further, the hepatic intrinsic clearance (Clint) was obtained using the following Formula (1). Clint (μL/min/mg)=(0.693/t1/2)÷0.2 (mg/mL)×1000 (1) […]

Row | microsomal CLint at 1 μM | SMILES | metabolic stability compared to tolvaptan (human liver microsomes, two-tailed Dunnett's test, p<0.001)
1 | 166 ± 5.3 µL/min/mg | [2H]C1([2H])CC([2H])([2H])C([2H])(O)c2cc(Cl)ccc2N1C(=O)c1ccc(NC(=O)c2ccccc2C)cc1C (stereo not drawn) [Example 4, N-(4-(7-chloro-5-hydroxy-2,2,4,4,5-pentadeutero-1H-benzo[b]azepine-1-carbonyl)-3-methylphenyl)-2-methylbenzamide] | significantly improved metabolic stability compared to tolvaptan
2 | 214 ± 4.3 µL/min/mg | Cc1ccccc1C(=O)Nc1ccc(C(=O)N2CCCC(O)c3cc(Cl)ccc32)c(C)c1 (stereo not drawn) [Tolvaptan, tolvaptan, reference compound] | –
